One assay concerns PBMC. Nature of the assay: Immunostimulatory activity in human PBMC assessed as increase in IL-6 release at 10 uM after 24 hrs by ELISA. It is filed as functional.
The target in assay [1] is Toll-like receptor 4 (Homo sapiens) (UniProt O00206). Nature of the assay: Agonist activity at human TLR4 expressed in HEK-blue cells coexpressing MD2 at 1.15 10^-5M by SEAP reporter gene assay. It is filed as cell-based.
Assay [2] shares this target. Nature of the assay: Agonist activity at human TLR4 expressed in HEK-blue cells coexpressing MD2 at 1.07 10^-5M by SEAP reporter gene assay relative to MPLA. It is filed as cell-based.
Assay [3] shares this target. The experiment in a line: Agonist activity at human TLR4 expressed in HEK-blue cells coexpressing MD2 at 1.07 10^-5M by SEAP reporter gene assay. It is filed as cell-based.
Assay [4] shares this target. Nature of the assay: Agonist activity at human TLR4 expressed in HEK-blue cells coexpressing MD2 at 1.11 10^-5M by SEAP reporter gene assay. Format: cell-based.
Assay [5] has the same target. Nature of the assay: Agonist activity at human TLR4 expressed in HEK-blue cells coexpressing MD2 at 1.11 10^-5M by SEAP reporter gene assay relative to MPLA. It is filed as cell-based.
For assay [6] the target is unchanged. Nature of the assay: Agonist activity at human TLR4 expressed in HEK-blue cells coexpressing MD2 at 500 ng/ml by SEAP reporter gene assay relative to MPLA. It is filed as cell-based.
Assay [7] has the same target. Nature of the assay: Agonist activity at human TLR4 expressed in HEK-blue cells coexpressing MD2 at 0.99 10^-5M by SEAP reporter gene assay. It is filed as cell-based.
Assay [8] shares this target. The experiment in a line: Agonist activity at human TLR4 expressed in HEK-blue cells coexpressing MD2 at 1.06 10^-5M by SEAP reporter gene assay relative to MPLA. It is filed as cell-based.

Active and inactive are the calls of the source. The calls are words filed in the database; no cut-off is given here.

Sequence of Toll-like receptor 4 (Homo sapiens) (O00206 whole entry): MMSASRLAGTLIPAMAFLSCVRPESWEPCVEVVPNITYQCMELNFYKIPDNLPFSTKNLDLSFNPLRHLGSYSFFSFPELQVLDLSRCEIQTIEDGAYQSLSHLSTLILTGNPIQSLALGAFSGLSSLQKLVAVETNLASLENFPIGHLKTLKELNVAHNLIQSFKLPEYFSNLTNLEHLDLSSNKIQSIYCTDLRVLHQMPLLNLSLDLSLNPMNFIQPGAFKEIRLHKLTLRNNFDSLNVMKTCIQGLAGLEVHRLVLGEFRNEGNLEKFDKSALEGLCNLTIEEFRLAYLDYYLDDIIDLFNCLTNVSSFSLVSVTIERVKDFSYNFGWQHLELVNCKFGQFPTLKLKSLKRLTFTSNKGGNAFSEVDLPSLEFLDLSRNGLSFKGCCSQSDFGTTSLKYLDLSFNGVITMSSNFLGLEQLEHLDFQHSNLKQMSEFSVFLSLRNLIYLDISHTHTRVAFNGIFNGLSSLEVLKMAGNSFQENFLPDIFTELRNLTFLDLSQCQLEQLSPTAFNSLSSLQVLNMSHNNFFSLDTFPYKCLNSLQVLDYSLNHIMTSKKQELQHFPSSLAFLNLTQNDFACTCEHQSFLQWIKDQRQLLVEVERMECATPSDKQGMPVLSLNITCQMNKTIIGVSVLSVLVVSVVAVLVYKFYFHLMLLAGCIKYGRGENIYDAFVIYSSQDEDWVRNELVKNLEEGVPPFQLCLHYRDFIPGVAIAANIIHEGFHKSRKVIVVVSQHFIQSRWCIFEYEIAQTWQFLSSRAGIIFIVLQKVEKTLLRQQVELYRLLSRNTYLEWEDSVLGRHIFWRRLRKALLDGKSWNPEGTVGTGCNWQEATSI

Regarding `O=C(CCN1C(=O)C2C3c4ccccc4C(c4ccccc43)C2C1=O)NC1CCCCCCC1` (stereo not drawn), in the assay on PBMC, the Activity came out at 212.56 pg/mL.

In the case of `O=C(CCN1C(=O)C2C3c4ccccc4C(c4ccccc43)C2C1=O)NCc1ccccc1` (stereo not drawn), the outcome (in the assay on PBMC; in [1]) was inactive.

On to `COc1ccc(CNC(=O)CCN2C(=O)C3C4c5ccccc5C(c5ccccc54)C3C2=O)cc1` (stereo not drawn), for which the Activity in the assay on PBMC is 219.76 pg/mL; in [2], 50%. Besides, in assay [3], the result was Active.

Take `Cc1ccc(CNC(=O)CCN2C(=O)C3C4c5ccccc5C(c5ccccc54)C3C2=O)cc1` (stereo not drawn): the Activity in the assay with PBMC stood at 5.76 pg/mL; in [5], 50%. Moreover, in assay [4], the result was Active.

`CC(=O)Nc1ccc(-c2ccc(N3C(=O)C4C5c6ccccc6C(c6ccccc65)C4C3=O)cc2)cc1` (stereo not drawn) came in with an Activity in [6] of 30%.

`CC(C)CNC(=O)CCN1C(=O)C2C3c4ccccc4C(c4ccccc43)C2C1=O` (stereo not drawn): in the assay with PBMC, the outcome was inactive.

Consider `O=C(CCN1C(=O)C2C3c4ccccc4C(c4ccccc43)C2C1=O)NCc1ccc(Cl)c(Cl)c1` (stereo not drawn), for which the outcome (with PBMC; in assay [7]) was inactive.

With `CC(C)(C)NC(=O)CCN1C(=O)C2C3c4ccccc4C(c4ccccc43)C2C1=O` (stereo not drawn), the outcome with PBMC was inactive.

`O=C(CCN1C(=O)C2C3c4ccccc4C(c4ccccc43)C2C1=O)NC1CCCCCC1` (stereo not drawn): the Activity with PBMC was found to be 7.3 pg/mL.

For the molecule `O=C(CCN1C(=O)C2C3c4ccccc4C(c4ccccc43)C2C1=O)NCc1ccc(Cl)cc1` (stereo not drawn), the Activity in the assay on PBMC worked out at 0.725 pg/mL; in assay [8], 50%.

For `O=C(CCN1C(=O)C2C3c4ccccc4C(c4ccccc43)C2C1=O)NC1CCCCC1` (stereo not drawn), the result in the assay on PBMC was inactive.

(Values after ChEMBL document CHEMBL4145516, “Rational design of novel TLR4 ligands by in silico screening and their functional and structural characterization in vitro” (2018).)
